Data as given in US20030022923A1, “Methods for treatment of sickle cell anemia” (Medinox, Inc., priority 2001, published 2003).

Legend:
[1] = Pharmacokinetic study of vanillin-thiazolidine adduct and vanillin by oral administration in rats (vanillin in blood by HPLC); format: in vivo, Sprague-Dawley rats; settings: oral gavage, blood concentration-time curves 2-180 min
Description: Sixteen Sprague-Dawley rats (male, 200-300 g) were catheterized at the carotid at least 12 hours before drug administration and the catheter was flushed with heparin solution to prevent line clotting. […] Blood samples were collected by unhooking the flush syringe and letting the blood flow freely into centrifuge tubes at predetermined time points, i.e., 2, 5, 10, 15, 30, 45, 60, 90, 120 and 180 minutes after gavage. To each 100 μl of blood sample was added 400 μl of perchloric acid in a centrifuge tube. After vigorously vortexing, the samples in centrifuge tubes were spun down at 13,000 rpm for 10 min.
A striking difference was noted between the pharmacokinetic profiles of vanillin-thiazolidine and of unmodified vanillin.
Noncompartmental pharmacokinetic analysis was then carried out using WinNolin (Pharsight Inc., Mountain View, Calif.) and the results are summarized in Table 1, below. […] The maximum concentration at 2 minutes (Cmax) was also approximately 4 times higher in the former compared to the latter.

[2] = Hydrophobicity compared with vanillin; format: physicochemical
Excerpt: It is well known that vanillin can be extensively metabolized by intestinal bacteria and the liver (Strand and Scheline, supra). It is likely that the vanillin-derived thiazolidine is not easily metabolized by the same routes.

[3] = cited from earlier work
hemoglobin S = hemoglobin S (Homo sapiens, UniProt P68871+P69905, E7V); settings: in solution and in intact red cells; cited from earlier work
[4] = orally administered; extensive metabolism in the intestines and liver; cited from earlier work

Row | Compound | vanillin levels in the blood and half-life (FIG. 1 profile, in words) [1] | hydrophobicity relative to vanillin [2] | body and organ weights, hemotology, histopathology, test vs control rats ([3]; 1.0% of the diet for 16 weeks, 2.0% and 5.0% for 1 year, or 0.5%, 1.0% and 2.0% for 2 years) | toxicity on extended feeding ([3]; rats, vanillin at high levels for extensive periods) | oxygen affinity of hemoglobin S (hemoglobin S) | oral bioavailability [4]
1 | CCOC(=O)C1CSC(c2ccc(O)c(OC)c2)N1 (stereo not shown) [Vanillin-Thiazolidine Adduct, Ethyl 2-(4-hydroxy-3-methoxyphenyl)-1,3-thiazolidine-4-carboxylate] | higher, with a much longer half-life | more hydrophobic than vanillin |  |  |  | 
2 | COc1cc(C=O)ccc1O [Vanillin, 4-hydroxy-3-methoxybenzaldehyde] | low with a short half-life |  | no significant differences | No toxicity was observed | marked increase in oxygen affinity | poorly bioavailable
